Assay results as given in PMC8944080, “Production of indole by Corynebacterium glutamicum microbial cell factories for flavor and fragrance applications” (Microbial Cell Factories, 2022).

Molecular target: T1, PrTNA (Proteiniclasticum ruminis, UniProt A0A1I5A1Q1)
T1 construct: gene tnaA; full length, untagged, codon-optimised gene in pGold, expressed in C. glutamicum C1*
T1 sequence (A0A1I5A1Q1 1-461): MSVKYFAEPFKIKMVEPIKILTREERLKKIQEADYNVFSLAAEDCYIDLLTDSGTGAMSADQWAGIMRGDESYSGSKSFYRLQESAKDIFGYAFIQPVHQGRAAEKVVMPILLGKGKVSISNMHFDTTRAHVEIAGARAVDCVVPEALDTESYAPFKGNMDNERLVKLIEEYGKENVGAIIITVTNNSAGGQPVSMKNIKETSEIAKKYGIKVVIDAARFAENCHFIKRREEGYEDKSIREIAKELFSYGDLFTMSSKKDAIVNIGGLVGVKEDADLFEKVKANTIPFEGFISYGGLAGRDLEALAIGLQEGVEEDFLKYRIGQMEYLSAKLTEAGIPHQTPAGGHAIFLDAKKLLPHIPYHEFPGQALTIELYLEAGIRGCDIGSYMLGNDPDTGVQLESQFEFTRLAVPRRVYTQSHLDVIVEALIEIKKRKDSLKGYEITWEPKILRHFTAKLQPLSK
Experiment: whole-cell conversion to indole, HPLC
Type: cell-based
Details: C. glutamicum C1* co-expressing aroP, CGXII medium, 1 g L^−1 Trp; empty vector control without aroP

## N[C@@H](Cc1c[nH]c2ccccc12)C(=O)O [L-tryptophan]
  whole-cell conversion to indole, HPLC: Indole production was observed for all six tested TNAs
